Data reported in patent US9604998B2, “Inhibitors of the renal outer medullary potassium channel” (MERCK SHARP & DOHME CORP., priority 2013, dated 2017).
Counter-ions that a name gives are not always drawn.

Assays:
[1] = molecular target: hROMK (hKir1.1) (Homo sapiens (Human), UniProt P48048); assay: Thallium Flux Assay (ROMK channel functional thallium flux, FLIPR-Tetra); assay type: cell-based; details: HEK293 cells stably expressing hROMK (hKir1.1); read-out: Thallium Flux IC50
Protocol: HEK293 cells stably expressing hROMK (hKir1.1) were grown at 37° C. in a 10% CO2 humidified incubator in complete growth media: Dulbecco's Modified Eagle Medium supplemented with non-essential amino acids, Penicillin/Streptomycin/Glutamine, G418 and FBS. At >80% confluency, aspirate the media from the flask and rinse with 10 mL Calcium/Magnesium-free PBS. […] To dislodge the cell, gently bang the side of the flask with your hand. Triturate the cells completely and then transfer the cells to 25 mL complete media. Centrifuge at 1,500 rpm for 6 min followed by resuspension in complete growth media and determine cell concentration.
Compound Buffer (per microplate): 20 mL Probenecid/Assay Buffer; 0.3 mM ouabain (10 mM ouabain in water can be stored in amber bottle/aluminum foil at room temperature); Test compound
Stimulant Buffer (prepared at 5× final concentration in 1× FluxOR™ Chloride-Free Buffer): 7.5 mM Thallium sulfate and […] (to give a final assay concentration of 3 mM Thallium/0.3 mM Potassium). Store at 4° C. when not in use. If kept sterile, this solution is good for months.
The ROMK channel functional thallium flux assay is performed in 384 wells, using the FLIPR-Tetra instrument. HEK-hKir1.1 cells are seeded in Poly-D-Lysine microplates and kept in a 37° C.-10% CO2 incubator overnight. On the day of the experiment, the growth media is replaced with the FluxOR™ reagent loading buffer and incubated, protected from light, at ambient temperature (23-25° C.) for 90 min. The loading buffer is replaced with assay buffer±test compound followed by 30 min incubation at ambient temperature, where the Thallium/Potassium stimulant is added to the microplate.
1. Seed HEK-hKir1.1 cells (50 μl at 20,000 cells/well) in 384-well PDL coated Microplates
2. Allow cells to adhere overnight in humidified 37° C./10% CO2 incubator
3. Completely remove cell growth media from microplate and replace with 25 μl loading buffer
4. Incubate Microplate at room temperature, protected form light, for 90 min
5. Remove loading buffer and replace with 25 μl 1× Assay Buffer±test compound.
6. Incubate microplate at room temperature, protected from light, for 30 min
7. […] Excitation=400 nm, Emission=460 & 580 nm. Collect data for ˜10 min.
The fluorescence intensity of wells containing 3 μM of a standard control ROMK inhibitor of the present invention is used to define the ROMK-sensitive component of thallium flux. Fluorescence in the presence of test compounds is normalized to control values to provide % fluorescence change.

[2] = molecular target: Kir1.1 (ROMK1) (Homo sapiens (Human), UniProt P48048); assay: Electrophysiology Assay (whole cell voltage clamp, IonWorks Quattro); assay type: cell-based; details: Chinese hamster ovary cells stably expressing Kir1.1; block during voltage step to 0 mV; read-out: Electrophysiology IC50
Protocol: Chinese hamster ovary cells stably expressing Kir1.1 channels were maintained in T-75 flasks in cell culture media in a humidified 10% CO2 incubator at 37° C. Prior to an experiment, Kir1.1 expression was induced by overnight incubation with 1 mM sodium butyrate. […] After centrifugation, the cell pellet was resuspended in approximately 4.0 mL of bath solution and placed in the IonWorks instrument. The intracellular solution consisted of (in mM): 80 K gluconate, 40 KCl, 20 KF, 3.2 MgCl2, 3 EGTA, 5 Hepes, pH 7.4. Electrical access to the cytoplasm was achieved by perforation in 0.13 mg/mL amphotericin B for 4 min. […] Voltage protocols and current recordings were performed using the IonWorks HT software/hardware system. Currents were sampled at 1 kHz. No correction for liquid junction potentials was used. The test pulse, consisting of a 100 ms step to 0 mV from a holding potential of −70 mV, followed by a 100 ms voltage ramp from −70 mV to +70 mV, was applied before and after a 6 min compound incubation period. Test compounds were prepared by diluting DMSO stock solutions into the bath solution at 3× the final concentration and placed in the instrument in 96-well polypropylene plates. Current amplitudes were measured using the IonWorks software.

Sequence of hROMK (hKir1.1) (P48048 whole entry): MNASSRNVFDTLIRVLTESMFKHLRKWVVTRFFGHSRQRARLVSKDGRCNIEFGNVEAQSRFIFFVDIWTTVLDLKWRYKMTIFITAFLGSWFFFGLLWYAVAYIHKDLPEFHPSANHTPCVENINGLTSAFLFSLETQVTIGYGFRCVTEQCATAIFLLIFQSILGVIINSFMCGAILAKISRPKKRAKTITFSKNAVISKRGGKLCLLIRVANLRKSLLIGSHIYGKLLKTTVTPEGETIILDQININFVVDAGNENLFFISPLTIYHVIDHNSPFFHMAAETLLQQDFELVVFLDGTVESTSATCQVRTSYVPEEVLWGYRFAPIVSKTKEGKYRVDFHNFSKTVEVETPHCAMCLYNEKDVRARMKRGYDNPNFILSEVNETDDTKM
Sequence of Kir1.1 (ROMK1) (P48048 whole entry, species assumed): as the sequence (P48048 whole entry) above

## Cc1c([C@@H]2CN3CCN(C[C@H](O)c4ccc5c(c4C)COC5=O)C[C@H]3CN2)ccc(F)c1C#N [Example 102, 6-fluoro-3-((3R,9aR)-8-((R)-2-hydroxy-2-(4-methyl-1-oxo-1,3-dihydroisobenzofuran-5-yl)ethyl)octahydro-1H-pyrazino[1,2-a]pyrazin-3-yl)-2-methylbenzonitrile]
[1]
  IC50: 0.21 µM

## Cc1c([C@H]2CN3CCN(CCc4ccc5c(c4)COC5=O)C[C@H]3CN2)ccc(F)c1C#N [Example 104]
[2]
  IC50: 0.4 µM
[1]
  IC50: 0.11 µM

## COc1cc(CCN2CCN3C[C@@H](c4ccc5c(c4C)COC5=O)OC[C@@H]3C2)cc(F)c1C#N [Example 99]
[2]
  IC50: 0.21 µM
[1]
  IC50: 0.26 µM

## COc1cc(CCN2CCN3C[C@H](c4ccc5c(c4)COC5=O)OC[C@@H]3C2)ccc1C#N [Example 59]
[2]
  IC50: 0.04 µM

## Cc1c([C@@H]2CN3CCN(C4CCc5cc(C#N)ccc5C4)C[C@H]3CO2)ccc2c1COC2=O (stereo partly drawn) [Example 100, (3R,9aS)-8-(6-cyano-1,2,3,4-tetrahydronaphthalen-2-yl)-3-(4-methyl-1-oxo-1,3-dihydro-2-benzofuran-5-yl)octahydropyrazino[2,1-c][1,4]oxazin-5-ium trifluoroacetate]
[2]
  IC50: 0.21 µM
[1]
  IC50: 0.03 µM

## COc1cc([C@@H]2CN3CCN(CCc4ccc5c(c4C)COC5=O)C[C@H]3CO2)ccc1C#N [Example 71]
[2]
  IC50: 0.2 µM
[1]
  IC50: 0.11 µM

## COc1cc(C(O)CN2CCN3C[C@@H](c4ccc5c(c4C)COC5=O)OC[C@@H]3C2)c(Cl)cc1C#N (stereo partly drawn) [Example 9, (3R,9aS)-8-[2-(2-chloro-4-cyano-5-methoxyphenyl)-2-hydroxyethyl]-3-(4-methyl-1-oxo-1,3-dihydro-2-benzofuran-5-yl)octahydropyrazino[2,1-c][1,4]oxazin-5-ium chloride]
[1]
  IC50: 0.43 µM

## Cc1c([C@@H](O)CN2CCN3C[C@@H](c4ccc(C#N)c(F)c4)OC[C@H]3C2)ccc2c1COC2=O [Example 29, (3R,9aR)-3-(4-cyano-3-fluorophenyl)-8-[(2R)-2-hydroxy-2-(4-methyl-1-oxo-1,3-dihydro-2-benzofuran-5-yl)ethyl]octahydropyrazino[2,1-c][1,4]oxazin-8-ium chloride]
[2]
  IC50: 0.08 µM
[1]
  IC50: 0.49 µM

## Cc1c([C@@H]2CN3CCN(CC(O)c4ccc5c(c4C4CC4)COC5=O)C[C@H]3CO2)ccc2c1COC2=O (single isomer, unassigned) [Example 50]
[2]
  IC50: 0.25 µM
[1]
  IC50: 0.44 µM

## Cc1c([C@@H]2CN3CCN(CCc4ccc(-n5cnnn5)nc4)C[C@H]3CO2)ccc(F)c1C#N [Example 92]
[2]
  IC50: 0.08 µM
[1]
  IC50: 0.27 µM

## Cc1c([C@@H]2CN3CCN(CC(O)c4cccc(-n5cnnn5)c4)C[C@@H]3CO2)ccc(F)c1C#N (single isomer, unassigned) [Example 23]
[1]
  IC50: 0.32 µM

## Cc1c([C@@H]2CN3CCN(CC(O)c4ccc5c(c4)C[C@@H](C)OC5=O)C[C@H]3CO2)ccc2c1COC2=O (single isomer, unassigned) [Example 46]
[2]
  IC50: 0.11 µM
[1]
  IC50: 0.28 µM

## COc1cc([C@H]2CN3CCN(CC(O)c4cc(OC)c(C#N)cc4F)C[C@@H]3CO2)ccc1C#N (stereo partly drawn) [Example 14, (3S,9aR)-8-[2-(4-cyano-2-fluoro-5-methoxyphenyl)-2-hydroxyethyl]-3-(4-cyano-3-methoxyphenyl)octahydropyrazino[2,1-c][1,4]oxazin-5-ium chloride]
[2]
  IC50: 0.27 µM
[1]
  IC50: 0.58 µM

## Cc1c([C@@H]2CN3CCN(CC(O)c4cc(F)c(C#N)c(F)c4)C[C@H]3CO2)ccc2c1COC2=O (single isomer, unassigned) [Example 49]
[2]
  IC50: 0.05 µM
[1]
  IC50: 0.25 µM

## Cc1c([C@@H](O)CN2CCN3C[C@@H](c4cc(F)c(C#N)c(F)c4)OC[C@@H]3C2)ccc2c1COC2=O [Example 52, (3R,9aS)-3-(4-cyano-3,5-difluorophenyl)-8-[(2R)-2-hydroxy-2-(4-methyl-1-oxo-1,3-dihydro-2-benzofuran-5-yl)ethyl]octahydropyrazino[2,1-c][1,4]oxazin-8-ium chloride]
[2]
  IC50: 0.1 µM
[1]
  IC50: 0.41 µM

## Cc1c([C@H]2CN3CCN(CCc4ccc5c(c4C)COC5=O)C[C@@H]3CO2)ccc(F)c1C#N [Example 77]
[2]
  IC50: 0.07 µM

## O=C1OCc2cc(CCN3CCN4C[C@H](c5ccc6c(c5)COC6=O)OC[C@@H]4C3)ccc21 [Example 63]
[2]
  IC50: 0.04 µM
[1]
  IC50: 0.23 µM

## CCOc1cc(CCN2CCN3C[C@@H](c4ccc5c(c4C)COC5=O)OC[C@@H]3C2)ccc1C#N [Example 83]
[2]
  IC50: 0.09 µM
[1]
  IC50: 0.12 µM

## Cc1c(CCN2CCN3C[C@H](c4ccc5c(c4C)COC5=O)OC[C@H]3C2)ccc2c1COC2=O [Example 67]
[2]
  IC50: 0.07 µM

## Cc1c([C@@H]2CN3CCN(CC4OCCc5c4ccc4c5COC4=O)C[C@H]3CO2)ccc2c1COC2=O (stereo partly drawn) [Example 109, 6-{[(3R,9aS)-3-(4-methyl-1-oxo-1,3-dihydro-2-benzofuran-5-yl)hexahydropyrazino[2,1-c][1,4]oxazin-8(1H)-yl]methyl}-8,9-dihydro-1H-furo[3,4-f]isochromen-3(6H)-one]
[2]
  IC50: 0.05 µM

## Cc1c([C@@H]2CN3CCN(CCc4ccc5c(c4C)COC5=O)C[C@@H]3CO2)ccc(F)c1C#N [Example 78]
[2]
  IC50: 0.07 µM

## COc1cc(CCN2CCN3C[C@@H](c4ccc5c(c4)COC5=O)OC[C@@H]3C2)ccc1C#N [Example 58]
[2]
  IC50: 0.12 µM

## COc1c([C@@H]2CN3CCN(C[C@@H](O)c4ccc5c(c4C)COC5=O)C[C@H]3CO2)ccc(C#N)c1F [Example 31, (3R,9aS)-3-(4-cyano-3-fluoro-2-methoxyphenyl)-8-[(2S)-2-hydroxy-2-(4-methyl-1-oxo-1,3-dihydro-2-benzofuran-5-yl)ethyl]octahydropyrazino[2,1-c][1,4]oxazin-8-ium chloride]
[1]
  IC50: 0.65 µM

## O=C1OCc2cc(CCN3CCN4C[C@@H](c5ccc6c(c5)COC6=O)OC[C@@H]4C3)ccc21 [Example 62]
[2]
  IC50: 0.04 µM

## COc1c([C@@H]2CN3CCN(C[C@H](O)c4ccc5c(c4C)COC5=O)C[C@H]3CO2)ccc(C#N)c1F [Example 30, (3R,9aS)-3-(4-cyano-3-fluoro-2-methoxyphenyl)-8-[(2R)-2-hydroxy-2-(4-methyl-1-oxo-1,3-dihydro-2-benzofuran-5-yl)ethyl]octahydropyrazino[2,1-c][1,4]oxazin-8-ium chloride]
[1]
  IC50: 0.23 µM

## Cc1nc(-n2cnnn2)ccc1C(O)CN1CCN2C[C@@H](c3ccc(F)c(C#N)c3C)OC[C@@H]2C1 (single isomer, unassigned) [Example 21]
[1]
  IC50: 0.26 µM

## COc1cc(F)c(CCN2CCN3C[C@@H](c4ccc5c(c4C)COC5=O)OC[C@@H]3C2)cc1C#N [Example 84]
[2]
  IC50: 0.05 µM

## COc1cc(CCN2CCN3C[C@H](c4ccc5c(c4C)COC5=O)OC[C@@H]3C2)ccc1C#N [Example 60]
[2]
  IC50: 0.18 µM

## COc1cc([C@H]2CN3CCN(CCc4ccc5c(c4C)COC5=O)C[C@H]3CO2)ccc1C#N [Example 74]
[2]
  IC50: 0.08 µM

## Cc1c(CCN2CCN3C[C@@H](c4ccc5c(c4C)COC5=O)OC[C@H]3C2)ccc2c1COC2=O [Example 68]
[2]
  IC50: 0.14 µM

## COc1cc(CCN2CCN3C[C@@H](c4ccc5c(c4)C[C@H](C)OC5=O)OC[C@@H]3C2)ccc1C#N [Example 85]
[2]
  IC50: 0.09 µM
